Values joined by “and” are separate entries in the source; they are usually repeats but may differ in a detail not shown here. Equal entries are not always repeated. Where two headings read alike, the source gives them in different places.
Tests used:
[1] = test system: Legionella pneumophila; conditions: 1 mg/L for 24 hours; either metal surface; cited from earlier work
[2] = test system: 21-day old biofilms; conditions: 1 mg/L free residual; 30° C.; cited from earlier work
[3] = test system: biofilms of Pseudomonas aeruginosa (ATCC 15442); experiment: MBEC (minimum biofilm eradication concentration) test, 96-peg Calgary biofilm device; format: cell-based
[4] = test system: biofilm bacteria; conditions: 1 ppm residuals; cited from earlier work
[5] = test system: biofilms consisting of a consortium of Legionella, heterotrophic bacteria and amoebae; conditions: cited from earlier work
[6] = test system: sessile bacteria; conditions: pH 9; cited from earlier work
[7] = test system: biofilm-associated Legionella; conditions: cited from earlier work
[8] = test system: 3-day biofilms; conditions: cited from earlier work
[9] = test system: HPC Bacteria (planktonic and biofilm); experiment: Laboratory model water system, 48-hour biocide challenge and 14-day recovery: HPC bacteria; format: cell-based
[10] = test system: biofilm bacteria; conditions: 1.5 mg/L applied continuously for 18 hours; cited from earlier work
[11] = test system: biofilms of Sphaerotilus natans; conditions: dynamic tests; maximum applied dose 20 ppm; cited from earlier work
[12] = test system: biofilm bacteria; conditions: cited from earlier work
[13] = 7-day biofilm, one hour contact time, average, halogen biocides as Cl2
[14] = 1-day biofilm, one hour contact time, average, halogen biocides as Cl2, others as active ingredient
[15] = 1-day biofilm, one hour contact time, individual determinations, halogen biocides as Cl2, others as active ingredient
[16] = maximum log reduction, typically 2-12 hours after biocide application
[17] = relative to control after the 14-day recovery period

Q: Which “viable Legionella recovered from the biofilms” value [1] does the source give for `CC1(C)C(=O)N(Cl)C(=O)N1Br` [BCDMH, 1-bromo-3-chloro-5,5-dimethylhydantoin] here?
A: The value was “no viable Legionella were recovered”.

Q: And the “reduction of biofilm counts on mild steel” value [2]?
A: The value was 1.4 logs.

Q: What about the “reduction of biofilm counts on stainless steel” value [2] of the same compound?
A: The value was 2.0 logs.

Q: And the “1-Day Biofilm MBEC, avg.” value [3]?
A: The value was 2.5 ppm.

Q: And the “1-Day Biofilm MBEC, ppm” value [3]?
A: Its value is 2.5, 2.5 ppm.

Q: What about the “7-Day Biofilm MBEC, ppm” value [3] of the same compound?
A: Its value is 5, 10 ppm.

Q: What about the “7-Day Biofilm MBEC, avg.” value [3, 13] of the same compound?
A: The value was 7.5 ppm.

Q: And the “log kill of biofilm bacteria” value [4]?
A: The value was 1 log.

Q: And the “efficacy against biofilm-associated heterotrophic bacteria and Legionella” value [5]?
A: Its value is “also effective but was slower acting”.

Q: With `O=CCCCC=O` [Glutaraldehyde, glutaraldehyde] as the compound, how does the “1-Day Biofilm MBEC, avg.” value [3, 14] read?
A: Its value is 50 ppm.

Q: What about the “1-Day Biofilm MBEC, ppm” value [3, 15] of the same compound?
A: The value was 50, 50 ppm.

Q: What about the “7-Day Biofilm MBEC, avg.” value [3, 13] of the same compound?
A: The value was about 200 ppm.

Q: What about the “7-Day Biofilm MBEC, ppm” value ([3]; 7-day biofilm, one hour contact time, individual determinations, halogen biocides as Cl2) of the same compound?
A: The value was 100 ppm and > 200 ppm.

Q: What about the “log reductions in sessile bacteria / biofilm counts” value [6] of the same compound?
A: The value was 2 log.

Q: And the “effect on levels of biofilm-associated Legionella” value [7]?
A: Its value is “non detectable levels”.

Q: What about the “"no effect" level on biofilm removal” value [8] of the same compound?
A: The value was 20 ppm.

Q: What about the “efficacy against biofilm-associated heterotrophic bacteria and Legionella” value [5] of the same compound?
A: Its value is “effective”.

Q: For `O=S(=O)([O-])[O-].OC[P+](CO)(CO)CO.OC[P+](CO)(CO)CO` [THPS], which “log reductions in sessile bacteria / biofilm counts” value [6] is on record?
A: The value was 2 log.

Q: For `CC1(C)C(=O)N(Br)C(=O)N1Br` [DBDMH, 1-3-dibromo-5,5-dimethylhydantoin], which “Log Reduction, HPC Bacteria, Biofilm” value [9, 16] is on record?
A: The value was 2.7 log.

Q: And the “Log Reduction, HPC Bacteria, Planktonic” value [9, 16]?
A: Its value is 3.6 log.

Q: And the “Log Reduction, HPC Bacteria, Biofilm” value [9, 17]?
A: The value was 0.4 log.

Q: And the “Log Reduction, HPC Bacteria, Planktonic” value [9, 17]?
A: The value was 0.2 log.

Q: What about the “1-Day Biofilm MBEC, avg.” value [3] of the same compound?
A: The value was 1.2 ppm.

Q: And the “1-Day Biofilm MBEC, ppm” value [3]?
A: Its value is 1.2 ppm.

Q: And the “7-Day Biofilm MBEC, avg.” value [3]?
A: The value was 5 ppm.

Q: What about the “7-Day Biofilm MBEC, ppm” value [3] of the same compound?
A: The value was 5, 5 ppm.

Q: And the MBEC [3]?
A: The MBEC was 1.4 mg/L.

Q: Which “effect on levels of biofilm-associated Legionella” value [7] does the source give for `O=[O+][O-]` [ozone] here?
A: The value was “did not appear to significantly affect”.

Q: With `CC(=O)OO` [Peracetic Acid, peracetic acid] as the compound, how does the “1-Day Biofilm MBEC, avg.” value ([3]; 1-day biofilm, four-hour contact time, average (est.)) read?
A: Its value is about 150 ppm.

Q: What about the “1-Day Biofilm MBEC, ppm” value ([3]; 1-day biofilm, four-hour contact time, individual determinations, active ingredient) of the same compound?
A: The value was 100, >100 ppm.

Q: Which “reduction of biofilm bacteria” value [10] does the source give for `[O][Cl+][O-]` [ClO2, Chlorine dioxide] here?
A: The value was 99.4%.

Q: Which “treatment level for biofilm control (but not eradication)” value (“treatment level … (but not eradication)” below) [11] does the source give for `OCl` [HOCl, Hypochlorous acid] here?
A: Its value is over 20 ppm.

Q: Which results are given for `O=c1n(Cl)c(=O)n(Cl)c(=O)n1Cl` [Trichlor, 1,3,5-trichloroisocyanuric acid]?
A: 1-Day Biofilm MBEC, avg. [3]: 1.9 ppm; 1-Day Biofilm MBEC, ppm [3]: 2.5, 1.2 ppm; 7-Day Biofilm MBEC, avg. [3]: 20 ppm; 7-Day Biofilm MBEC, ppm [3]: 20, 20 ppm

Q: Which “1-Day Biofilm MBEC, avg.” value [3] does the source give for `OO` [H2O2, hydrogen peroxide] here?
A: The value was over 200 ppm.

Q: What about the “1-Day Biofilm MBEC, ppm” value [3] of the same compound?
A: The value was >100, >100 ppm.

Q: What about the “log reductions in sessile bacteria / biofilm counts” value [6] of the same compound?
A: The value was 2 log.

Q: Which “log kill of biofilm bacteria” value [4] does the source give for `CCC1(C)C(=O)N(Cl)C(=O)N1Br` (centres unmarked) [BrMEH, bromo-chloro-methylethylhydantoin] here?
A: The value was 0.7 log.

Q: And the “treatment level … (but not eradication)” value [11]?
A: Its value is 10 ppm.

Q: With `CCCCCCCCCCSCCN.Cl` [DTEA, decylthioethaneamine hydrochloride] as the compound, how does the “1-Day Biofilm MBEC, avg.” value [3, 14] read?
A: The value was 100 ppm.

Q: And the “1-Day Biofilm MBEC, ppm” value [3, 15]?
A: Its value is 100, 100 ppm.

Q: Which “1-Day Biofilm MBEC, avg.” value [3] does the source give for `[Na+].[O-]Cl` [Bleach, NaOCl] here?
A: The value was 3.8 ppm.

Q: And the “1-Day Biofilm MBEC, ppm” value [3]?
A: The value was 5.0, 2.5 ppm.

Q: And the “7-Day Biofilm MBEC, avg.” value [3]?
A: Its value is 20 ppm.

Q: What about the “7-Day Biofilm MBEC, ppm” value [3] of the same compound?
A: The value was 20, 20 ppm.

Q: With `OBr` [HOBr, hypobromous acid] as the compound, how does the “treatment level … (but not eradication)” value [11] read?
A: The value was 15 ppm.

Q: Which results are given for `N#CC(Br)(Br)C(N)=O` [DBNPA, Dibromonitrilopropionamide]?
A: 1-Day Biofilm MBEC, avg. [3, 14]: 3.1 ppm; 1-Day Biofilm MBEC, ppm [3, 15]: 2.0 ppm and 4.1 ppm; effect on levels of biofilm-associated Legionella [7]: non detectable levels

Q: What does the source list for `BrBr` [bromine]?
A: effect on levels of biofilm-associated Legionella [7]: non detectable levels; log reductions of biofilm bacteria [12]: ~3 log

— patent publication US20090178587A9, “Control of biofilms in industrial water systems” (priority 2001, published 2009)
